According to US9334246B2, “Substituted triazines for malaria treatment and chemoprophylaxis” (The United States of America, as represented by the …, priority 2013, dated 2016):
≈ marks a conversion by molar mass, not a printed value. Where two headings read alike, the source gives them in different places.

Key:
P. falciparum D6 = assay: Malaria SYBR Green Fluorescence Assay, D6 strain; format: cell-based, Plasmodium falciparum
P. falciparum W2 = assay: Malaria SYBR Green Fluorescence Assay, W2 strain; format: cell-based, Plasmodium falciparum
P. falciparum C235 = assay: Malaria SYBR Green Fluorescence Assay, C235 strain; format: cell-based, Plasmodium falciparum
P. berghei = assay: Thompson Test, in vivo mouse malaria assay; set-up: species or system mice (ICR strain)
[1] = biological target: T1, hERG potassium ion channel (Homo sapiens, UniProt Q12809); assay: hERG patch clamp assay (% inhibition at 10 μM)
T1 sequence (Q12809 whole entry): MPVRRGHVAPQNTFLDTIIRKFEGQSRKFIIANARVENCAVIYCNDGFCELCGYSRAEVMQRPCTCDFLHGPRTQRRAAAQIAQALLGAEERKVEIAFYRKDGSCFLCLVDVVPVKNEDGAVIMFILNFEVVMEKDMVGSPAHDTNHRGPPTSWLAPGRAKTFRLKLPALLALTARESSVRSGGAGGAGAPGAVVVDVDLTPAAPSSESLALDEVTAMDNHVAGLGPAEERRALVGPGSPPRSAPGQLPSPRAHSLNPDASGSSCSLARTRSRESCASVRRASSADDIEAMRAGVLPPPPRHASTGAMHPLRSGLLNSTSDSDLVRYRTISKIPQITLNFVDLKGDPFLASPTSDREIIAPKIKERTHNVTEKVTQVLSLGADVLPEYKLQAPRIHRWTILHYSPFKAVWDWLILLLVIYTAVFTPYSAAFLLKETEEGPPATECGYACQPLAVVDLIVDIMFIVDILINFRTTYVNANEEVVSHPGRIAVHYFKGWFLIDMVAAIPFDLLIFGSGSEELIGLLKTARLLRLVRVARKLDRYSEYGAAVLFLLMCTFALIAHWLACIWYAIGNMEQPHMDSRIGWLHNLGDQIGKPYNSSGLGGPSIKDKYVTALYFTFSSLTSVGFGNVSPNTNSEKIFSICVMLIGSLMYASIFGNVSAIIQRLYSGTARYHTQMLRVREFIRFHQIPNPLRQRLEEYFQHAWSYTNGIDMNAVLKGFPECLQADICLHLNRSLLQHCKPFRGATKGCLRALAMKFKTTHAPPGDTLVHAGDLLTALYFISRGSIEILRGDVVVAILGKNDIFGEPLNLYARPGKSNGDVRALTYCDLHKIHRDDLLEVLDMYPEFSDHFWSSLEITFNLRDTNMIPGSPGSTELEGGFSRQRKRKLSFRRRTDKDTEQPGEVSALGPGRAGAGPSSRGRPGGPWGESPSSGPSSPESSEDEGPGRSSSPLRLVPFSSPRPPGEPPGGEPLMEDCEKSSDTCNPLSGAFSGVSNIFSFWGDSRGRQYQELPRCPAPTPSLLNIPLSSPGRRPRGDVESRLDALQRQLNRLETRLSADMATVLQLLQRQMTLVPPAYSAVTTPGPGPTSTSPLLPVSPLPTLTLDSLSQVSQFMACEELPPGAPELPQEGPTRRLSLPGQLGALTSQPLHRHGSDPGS

[2] = system: drug resistant strains of P. falciparum; assay: in vitro profiling against different drug resistant strains of P. falciparum; format: cell-based, Plasmodium falciparum
[3] = biological target: T1, hERG potassium ion channel; conditions: 10 μM
[4] = in vivo
hERG channel = hERG channel (Homo sapiens, UniProt Q12809)
Chain of hERG channel (Q12809 whole entry): as above

[5] = % inhibition at 10 μM, patch clamp
[6] = (160 × 3): 160 mg/kg for 3 days
[7] = Plasmodium falciparum, SYBR Green Assay

Row | Compound | D6 (P. falciparum D6; SYBR Green Assay) | W2 (P. falciparum W2; SYBR Green Assay) | C235 (P. falciparum C235; SYBR Green Assay) | In vivo Results Thompson Assay (n/N Cures or Suppressive) (P. berghei; (80 × 3): 80 mg/kg for 3 days) | hERG ([1]; hERG activity as % inhibition) | hERG [1, 5] | also measured
1 | CC(C)(C)c1ccc(cc1)c2nc(nc(n2)C(Cl)(Cl)Cl)N3CC4CC3CN4 [Compound 721] | 142 ng/mL | 69 ng/mL | 126 ng/mL | (80 × 3) 2/5 Cures | 2% |  | Rhesus Results (P. cynomolgi; 65 mg/kg once weekly): prophylaxis; Rhesus Results (P. cynomolgi; 65 mg/kg/day × 7 days): malaria cures
2 | CC(CNc1nc(Nc2ccc(Cl)c(Cl)c2)nc(n1)C(Cl)(Cl)Cl)N(C)C [Compound 641] |  |  |  | (80 × 3) 5/5 Cures |  |  | D6 (SYBR Green Assay IC50) (P. falciparum D6): 15 ng/mL; W2 (SYBR Green Assay IC50) (P. falciparum W2): 5 ng/mL; C235 (SYBR Green Assay IC50) (P. falciparum C235): 13 ng/mL; In vivo Results Thompson Assay (n/N Cures or Suppressive) (P. berghei; (40 × 3): 40 mg/kg for 3 days): 2/5; In vivo Results Thompson Assay (n/N Cures) (P. berghei; (160 × 1): single 160 mg/kg PO dose): 5/5; in vitro potency [2]: excellent in vitro potency; hERG (% inhibition) [3]: 117%; Rhesus Results (P. cynomolgi; 65 mg/kg once weekly): prophylaxis; Rhesus Results (P. cynomolgi; 65 mg/kg/day × 7 days): malaria cures; malaria parasitemia, prophylactic drug, rhesus P. cynomolgi relapsing model (P. cynomolgi; dosed once weekly (65 mg, PO)): prevented malaria parasitemia; tolerability (P. cynomolgi; rhesus monkey, in vivo, 316 mg/kg): well tolerated; mouse half-life ([4]; po, 80 mg/kg): 8 h; Cmax ([4]; mouse): > 600 nM; IC50 (hERG channel): 600 nM
3 | CN1CCN(c2nc(-c3ccc([S+](C)[O-])cc3)nc(C(Cl)(Cl)Cl)n2)CC1 (stereo not shown) [Compound 72] | 33 ng/mL | 33 ng/mL | 27 ng/mL | (80 × 3) Suppressive |  | 41% | 
4 | Cc1ccc(cc1)c2nc(nc(n2)C(Cl)(Cl)Cl)N3CC4CC3CN4 [Compound 719] | 96 ng/mL | 68 ng/mL | 114 ng/mL | (80 × 3) Suppressive; (160 × 3) | 10% |  | In vivo Results Thompson Assay (n/N Cures or Suppressive) (P. berghei; [6]): Suppressive
5 | COc1ccc(-c2nc(NC3CC(C)(C)NC(C)(C)C3)nc(C(Cl)(Cl)Cl)n2)cc1OC [Compound 328] | 64 ng/mL | 40 ng/mL | 84 ng/mL | (80 × 3) 2/5 Cures |  | 31% | 
6 | NC1(CNC2═NC(═NC(═N2)C2═CC═C(C═C2)C2═CC═CC═C2)C(Cl)(Cl)Cl)CCCC1 [Compound 672] | 46 ng/mL | 30 ng/mL | 68 ng/mL | (80 × 3) 4/4 Cures | 33% |  | 
7 | CC(C)(N)CNc1nc(-c2ccc(C(Cl)(Cl)Cl)cc2)nc(C(Cl)(Cl)Cl)n1 [Compound 55] | 46 ng/mL | 30 ng/mL | 89 ng/mL | 5/5 |  | 17% | In vivo Results Thompson Assay (n/N Cures or Suppressive) (P. berghei; (40 × 3): 40 mg/kg for 3 days): 3/5; Rhesus Results (P. cynomolgi; 65 mg/kg once weekly): prophylaxis; Rhesus Results (P. cynomolgi; 65 mg/kg/day × 7 days): malaria cures
8 | FC(F)(F)c1cccc(-c2nc(N3CC4CC3CN4)nc(C(Cl)(Cl)Cl)n2)c1 (stereo not shown) [Ex. 7, 2-(4-(trichloromethyl)-6-(3-(trifluoromethyl)phenyl)-1,3,5-triazin-2-yl)-2,5-diazabicyclo[2.2.1]heptane] |  |  |  | Suppressive | 29% |  | IC50 (P. falciparum D6; [7]): 0.106 µg/mL (≈ 0.242 µM); IC50 (P. falciparum W2; [7]): 0.126 µg/mL (≈ 0.287 µM); IC50 (P. falciparum C235; [7]): 0.192 µg/mL (≈ 0.438 µM); In vivo Results Thompson Assay (n/N Cures or Suppressive) (P. berghei; [6]): 4/5
9 | Cc1ccc(-c2nc(N3CCCNCC3)nc(C(Cl)(Cl)Cl)n2)cc1 [Compound 102] | 58 ng/mL | 44 ng/mL | 48 ng/mL | (80 × 3) Suppressive |  | 47% | 
10 | OCCN1CCN(c2nc(-c3ccc(C(Cl)(Cl)Cl)cc3)nc(C(Cl)(Cl)Cl)n2)CC1 [Compound 119] | 29 ng/mL | 12 ng/mL | 46 ng/mL | 4/5 |  | 18% | In vivo Results Thompson Assay (n/N Cures or Suppressive) (P. berghei; (40 × 3): 40 mg/kg for 3 days): 1/5
11 | CCN1CCC(CC1)C(C)Nc2nc(Nc3ccc(Cl)c(Cl)c3)nc(n2)C(Cl)(Cl)Cl [Compound 643] |  |  |  | (80 × 3) 2/5 Cures |  |  | D6 (SYBR Green Assay IC50) (P. falciparum D6): 47 ng/mL; W2 (SYBR Green Assay IC50) (P. falciparum W2): 33 ng/mL; C235 (SYBR Green Assay IC50) (P. falciparum C235): 48 ng/mL; hERG (% inhibition) ([1]; 10 μM): 100%
